Experimental data reported in US20240246977A1, “DEGRADATION OF BRUTON'S TYROSINE KINASE (BTK) BY CONJUGATION OF BTK INHIBITORS WITH E3 LIGASE LIGAND AND METHOD OF USE” (BeiGene Switzerland GmbH, priority 2021, published 2024).

Experiments:
[1] = system: HEK-293 cells; assay: HEK-293 cytotoxicity detection (CellTiter-Glo); assay type: cell-based; conditions: Homo sapiens, 72 h, 72 h incubation, CellTiter-Glo luminescence, read-out: HEK293
Outline: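 HEK-293 cells exposed 72 h to 8 compounds doses (4-fold dilutions, top stock 5 mM at 500×) in 0.2% DMSO. Viability by CellTiter-Glo luminescence; inhibition normalised to DMSO high control and low control, IC50 from four-parameter curve fit.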

[2] = target: BTK (Homo sapiens, UniProt Q06187); assay: BTK cell degradation in TMD-8 cells, HTRF assay; assay type: cell-based; set-up: endogenous in cells; host or cells: TMD-8 cells; conditions: 6 h treatment, IC50 (DC50) of BTK degradation
Outline: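 BTK levels read by HTRF in lysates of TMD-8 cells exposed to compounds for 6 h, eight concentrations at 6-fold steps in 0.2% DMSO. Percent degradation versus DMSO and low controls was fitted with a four-parameter equation to give DC50; Dmax is maximal degradation.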

Chain of BTK (Q06187 whole entry): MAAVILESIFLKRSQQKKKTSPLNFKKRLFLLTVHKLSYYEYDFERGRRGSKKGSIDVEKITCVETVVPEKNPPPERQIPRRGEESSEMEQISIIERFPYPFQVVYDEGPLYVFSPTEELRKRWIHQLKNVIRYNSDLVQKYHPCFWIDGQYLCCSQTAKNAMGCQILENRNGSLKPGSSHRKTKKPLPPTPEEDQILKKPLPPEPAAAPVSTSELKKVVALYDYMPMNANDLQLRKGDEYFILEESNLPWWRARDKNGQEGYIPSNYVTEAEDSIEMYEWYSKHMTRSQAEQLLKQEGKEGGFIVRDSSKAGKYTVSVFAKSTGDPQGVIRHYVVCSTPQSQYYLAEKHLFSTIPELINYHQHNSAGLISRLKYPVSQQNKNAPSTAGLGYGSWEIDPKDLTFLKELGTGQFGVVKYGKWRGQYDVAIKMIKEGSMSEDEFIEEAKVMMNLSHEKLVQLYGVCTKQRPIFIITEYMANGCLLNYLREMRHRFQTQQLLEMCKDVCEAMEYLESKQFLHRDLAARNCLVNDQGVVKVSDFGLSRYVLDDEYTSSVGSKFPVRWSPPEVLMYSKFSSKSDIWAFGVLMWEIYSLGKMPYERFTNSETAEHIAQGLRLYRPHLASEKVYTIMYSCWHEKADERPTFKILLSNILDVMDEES

Structure (SMILES) | IC50 [1] [nM] | DC50 [2] [nM]
Cc1cccc(NC(=O)c2ccc(-c3nn4c(c3C(N)=O)Nc3ccc(N5CCN(C6CC(c7ccc([C@@H]8CCC(=O)NC8=O)cc7)C6)CC5)cc3CC4)c(F)c2C)n1 (stereo partly drawn) [Example B68, (S)-7-(4-(3-(4-(2,6-dioxopiperidin-3-yl)phenyl)cyclobutyl)piperazin-1-yl)-2-(2-fluoro-3-methyl-4-((6-methylpyridin-2-yl)carbamoyl)phenyl)-9,10-dihydro-4H-benzo[d]pyrazolo[1,5-a][1,3]diazepine-3-carboxamide] | 105 | 2.56
Cc1cccc(NC(=O)c2ccc(-c3nn4c(c3C(N)=O)Nc3ccc(N5CCN(C6CC(c7ccc(N[C@@H]8CCC(=O)NC8=O)cc7)C6)CC5)cc3CC4)c(F)c2C)n1 (stereo partly drawn) [Example B71, (R)-7-(4-(3-(4-((2,6-dioxopiperidin-3-yl)amino)phenyl)cyclobutyl)piperazin-1-yl)-2-(2-fluoro-3-methyl-4-((6-methylpyridin-2-yl)carbamoyl)phenyl)-9,10-dihydro-4H-benzo[d]pyrazolo[1,5-a][1,3]diazepine-3-carboxamide] | > 10000 | 7.45
Cc1cccc(NC(=O)c2ccc(-c3nn4c(c3C(N)=O)Nc3ccc(N5CCN(C6CC(c7ccc(N[C@H]8CCC(=O)NC8=O)cc7)C6)CC5)cc3CC4)c(F)c2C)n1 (stereo partly drawn) [Example B72, (S)-7-(4-(3-(4-((2,6-dioxopiperidin-3-yl)amino)phenyl)cyclobutyl)piperazin-1-yl)-2-(2-fluoro-3-methyl-4-((6-methylpyridin-2-yl)carbamoyl)phenyl)-9,10-dihydro-4H-benzo[d]pyrazolo[1,5-a][1,3]diazepine-3-carboxamide] | > 10000 | 6.23
Cc1cccc(NC(=O)c2ccc(-c3nn4c(c3C(N)=O)Nc3ccc(N5CCN(C(=O)C6CCN(c7ccc(N8CCC(=O)NC8=O)cc7)CC6)CC5)cc3CC4)c(F)c2C)n1 [Example B73, 7-(4-(1-(4-(2,4-dioxotetrahydropyrimidin-1(2H)-yl)phenyl)piperidine-4-carbonyl)piperazin-1-yl)-2-(2-fluoro-3-methyl-4-((6-methylpyridin-2-yl)carbamoyl)phenyl)-9,10-dihydro-4H-benzo[d]pyrazolo[1,5-a][1,3]diazepine-3-carboxamide] | > 10000 | 2.18
Cc1cccc(NC(=O)c2ccc(-c3nn4c(c3C(N)=O)Nc3ccc(N5CCN(C[C@H]6CCN(c7ccc(N8CCC(=O)NC8=O)cc7)C6)CC5)cc3CC4)c(F)c2C)n1 [Example B74, (R)-7-(4-((1-(4-(2,4-dioxotetrahydropyrimidin-1(2H)-yl)phenyl)pyrrolidin-3-yl)methyl)piperazin-1-yl)-2-(2-fluoro-3-methyl-4-((6-methylpyridin-2-yl)carbamoyl)phenyl)-9,10-dihydro-4H-benzo[d]pyrazolo[1,5-a][1,3]diazepine-3-carboxamide] | > 10000 | 7.15
Cc1cccc(NC(=O)c2ccc(-c3nn4c(c3C(N)=O)Nc3ccc(N5CCN(C(=O)Cc6cccc(N7CCC(=O)NC7=O)c6)CC5)cc3CC4)c(F)c2C)n1 [Example B75, 7-(4-(2-(3-(2,4-dioxotetrahydropyrimidin-1(2H)-yl)phenyl)acetyl)piperazin-1-yl)-2-(2-fluoro-3-methyl-4-((6-methylpyridin-2-yl)carbamoyl)phenyl)-9,10-dihydro-4H-benzo[d]pyrazolo[1,5-a][1,3]diazepine-3-carboxamide] | > 10000 | 30.1
Cc1cccc(NC(=O)c2ccc(-c3nn4c(c3C(N)=O)Nc3ccc(N5CCN(CC6CCN(c7ccc(N8CCC(=O)N(CC(=O)OC(C)(C)C)C8=O)cc7)CC6)CC5)cc3CC4)c(F)c2C)n1 [Example B76, tert-butyl 2-(3-(4-(4-((4-(3-carbamoyl-2-(2-fluoro-3-methyl-4-((6-methylpyridin-2-yl)carbamoyl)phenyl)-9,10-dihydro-4H-benzo[d]pyrazolo[1,5-a][1,3]diazepin-7-yl)piperazin-1-yl)methyl)piperidin-1-yl)phenyl)-2,6-dioxotetrahydropyrimidin-1(2H)-yl)acetate] | > 10000 | > 2000
Cc1cccc(N(CC(=O)OC(C)(C)C)C(=O)c2ccc(-c3nn4c(c3C(N)=O)Nc3ccc(N5CCN(CC6CCN(c7ccc(N8CCC(=O)N(CC(=O)OC(C)(C)C)C8=O)cc7)CC6)CC5)cc3CC4)c(F)c2C)n1 [Example B77, tert-butyl 2-(3-(4-(4-((4-(2-(4-((2-(tert-butoxy)-2-oxoethyl)(6-methylpyridin-2-yl)carbamoyl)-2-fluoro-3-methylphenyl)-3-carbamoyl-9,10-dihydro-4H-benzo[d]pyrazolo[1,5-a][1,3]diazepin-7-yl)piperazin-1-yl)methyl)piperidin-1-yl)phenyl)-2,6-dioxotetrahydropyrimidin-1(2H)-yl)acetate] | 38.3 | > 2000
Cc1cccc(NC(=O)c2ccc(-c3nn4c(c3C(N)=O)Nc3ccc(N5CCN(CC6CCN(c7ccc(N8CCC(=O)N(COC(=O)C(C)(C)C)C8=O)cc7)CC6)CC5)cc3CC4)c(F)c2C)n1 [Example B78, (3-(4-(4-((4-(3-carbamoyl-2-(2-fluoro-3-methyl-4-((6-methylpyridin-2-yl)carbamoyl)phenyl)-9,10-dihydro-4H-benzo[d]pyrazolo[1,5-a][1,3]diazepin-7-yl)piperazin-1-yl)methyl)piperidin-1-yl)phenyl)-2,6-dioxotetrahydropyrimidin-1(2H)-yl)methyl pivalate] | > 10000 | 6.27
Cc1cccc(N(COC(=O)C(C)(C)C)C(=O)c2ccc(-c3nn4c(c3C(N)=O)Nc3ccc(N5CCN(CC6CCN(c7ccc(N8CCC(=O)N(COC(=O)C(C)(C)C)C8=O)cc7)CC6)CC5)cc3CC4)c(F)c2C)n1 [Example B79, (3-(4-(4-((4-(3-carbamoyl-2-(2-fluoro-3-methyl-4-((6-methylpyridin-2-yl)((pivaloyloxy)methyl)carbamoyl)phenyl)-9,10-dihydro-4H-benzo[d]pyrazolo[1,5-a][1,3]diazepin-7-yl)piperazin-1-yl)methyl)piperidin-1-yl)phenyl)-2,6-dioxotetrahydropyrimidin-1(2H)-yl)methyl pivalate] | > 10000 | 3.68
Cc1cccc(NC(=O)c2ccc(-c3nn4c(c3C(N)=O)Nc3ccc(N5CCN(CC6CCN(c7ccc(N8CCC(=O)N(CC(=O)OCc9ccccc9)C8=O)cc7)CC6)CC5)cc3CC4)c(F)c2C)n1 [Example B80, benzyl 2-(3-(4-(4-((4-(3-carbamoyl-2-(2-fluoro-3-methyl-4-((6-methylpyridin-2-yl)carbamoyl)phenyl)-9,10-dihydro-4H-benzo[d]pyrazolo[1,5-a][1,3]diazepin-7-yl)piperazin-1-yl)methyl)piperidin-1-yl)phenyl)-2,6-dioxotetrahydropyrimidin-1(2H)-yl)acetate] | > 10000 | > 2000
Cc1cccc(N(CC(=O)OCc2ccccc2)C(=O)c2ccc(-c3nn4c(c3C(N)=O)Nc3ccc(N5CCN(CC6CCN(c7ccc(N8CCC(=O)N(CC(=O)OCc9ccccc9)C8=O)cc7)CC6)CC5)cc3CC4)c(F)c2C)n1 [Example B81, benzyl 2-(3-(4-(4-((4-(2-(4-((2-(benzyloxy)-2-oxoethyl)(6-methylpyridin-2-yl)carbamoyl)-2-fluoro-3-methylphenyl)-3-carbamoyl-9,10-dihydro-4H-benzo[d]pyrazolo[1,5-a][1,3]diazepin-7-yl)piperazin-1-yl)methyl)piperidin-1-yl)phenyl)-2,6-dioxotetrahydropyrimidin-1(2H)-yl)acetate] | 56.8 | > 2000
Cc1c(C(=O)Nc2ccn(C)n2)ccc(-c2nn3c(c2C(N)=O)Nc2ccc(N4CCN(CC5CCN(c6ccc(N7CCC(=O)NC7=O)cc6)CC5)CC4)cc2CC3)c1F [Example B82, 7-(4-((1-(4-(2,4-dioxotetrahydropyrimidin-1(2H)-yl)phenyl)piperidin-4-yl)methyl)piperazin-1-yl)-2-(2-fluoro-3-methyl-4-((1-methyl-1H-pyrazol-3-yl)carbamoyl)phenyl)-9,10-dihydro-4H-benzo[d]pyrazolo[1,5-a][1,3]diazepine-3-carboxamide] | > 10000 | 4.1
Cc1c(C(=O)Nc2nccs2)ccc(-c2nn3c(c2C(N)=O)Nc2ccc(N4CCN(CC5CCN(c6ccc(N7CCC(=O)NC7=O)cc6)CC5)CC4)cc2CC3)c1F [Example B83, 7-(4-((1-(4-(2,4-dioxotetrahydropyrimidin-1(2H)-yl)phenyl)piperidin-4-yl)methyl)piperazin-1-yl)-2-(2-fluoro-3-methyl-4-(thiazol-2-ylcarbamoyl)phenyl)-9,10-dihydro-4H-benzo[d]pyrazolo[1,5-a][1,3]diazepine-3-carboxamide] | > 10000 | 2.9
Cc1c(C(=O)Nc2ncn(C)n2)ccc(-c2nn3c(c2C(N)=O)Nc2ccc(N4CCN(CC5CCN(c6ccc(N7CCC(=O)NC7=O)cc6)CC5)CC4)cc2CC3)c1F [Example B84, 7-(4-((1-(4-(2,4-dioxotetrahydropyrimidin-1(2H)-yl)phenyl)piperidin-4-yl)methyl)piperazin-1-yl)-2-(2-fluoro-3-methyl-4-((1-methyl-1H-1,2,4-triazol-3-yl)carbamoyl)phenyl)-9,10-dihydro-4H-benzo[d]pyrazolo[1,5-a][1,3]diazepine-3-carboxamide] | > 10000 | 2.32
